Laboratory results from patent US12134610B2, “Somatostatin subtype-2 receptor (SST2R) targeted therapeutics and uses thereof” (priority 2022, dated 2024).

Columns and labels:
Type in all cases: cell-based
SST2 = molecular target: T1, SST2 (Homo sapiens, UniProt P30874); test: PathHunter CHO-K1 SST2 internalization assay; conditions: PathHunter CHO-K1 SST2, 90 min; read-out: Internalization EC50
T1 construct: host or cells: PathHunter CHO-K1 SST2 cells
Method in brief: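 PathHunter CHO-K1 SST2 cells, seeded and grown 48 h, were exposed to 11-point 1:3 dilutions of SMDC (top final 10 uM) for 90 min at 37 C, 5% CO2. Beta-Glo luminescence was read after 60 min at room temperature. Background-corrected duplicate means were fitted by four-parameter nonlinear regression to give IC50.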

[1] = molecular target: T2, human somatostatin receptor subtype 2 (Homo sapiens, UniProt P30874); test: Functional cAMP assay for SSTR2 agonists (HTRF) in CHO-K1 cells; conditions: CHO-K1 cells stably expressing human SST2, 20 min; read-out: hSST2 cAMP Avg EC50
T2 construct: expressed in transfected cells
Method in brief: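 CHO-K1 cells stably expressing receptor, plated 4 days before assay, treated 20 min at 37° C. with compound (typically 0-10,000 nM final) plus IBMX and 1.6 μM NKH477 to raise cAMP. HTRF read, 665/620 nm ratio; cAMP from standard curve, EC50 fitted.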

[2] = system: NCI-H524 (ATCC) human small cell lung cancer cells; conditions: 2 h
Method in brief: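 NCI-H524 cells (5,000/well) were exposed 24 h after plating to SMDC for 2 h, 11-point two-fold series from 1 uM. After washout they grew a further 70 h. Proliferation was read by CellTiter-Glo luminescence, % inhibition taken vs untreated control, and IC50 fitted by four-parameter nonlinear regression.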

T2 sequence (P30874 whole entry): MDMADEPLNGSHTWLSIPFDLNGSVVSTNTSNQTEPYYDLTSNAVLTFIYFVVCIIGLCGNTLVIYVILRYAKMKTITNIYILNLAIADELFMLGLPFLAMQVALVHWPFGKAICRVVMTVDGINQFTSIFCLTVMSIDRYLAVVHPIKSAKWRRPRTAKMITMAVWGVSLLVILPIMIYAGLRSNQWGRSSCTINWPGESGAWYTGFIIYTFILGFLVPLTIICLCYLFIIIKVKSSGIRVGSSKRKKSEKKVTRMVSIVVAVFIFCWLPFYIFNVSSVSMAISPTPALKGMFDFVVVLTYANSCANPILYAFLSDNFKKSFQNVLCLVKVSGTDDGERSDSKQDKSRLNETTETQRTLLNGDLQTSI
T1 sequence (P30874 whole entry): as above

Compound	EC50 (SST2)	EC50 [1]	EC50 [2]
CC[C@H](C)[C@@H]([C@@H](CC(=O)N1CCC[C@H]1[C@H](OC)[C@@H](C)C(=O)N[C@H](C)[C@@H](O)c1ccccc1)OC)N(C)C(=O)[C@@H](NC(=O)[C@H](C(C)C)N(C)C(=O)OCc1ccc(NC(=O)[C@H](CCCNC(N)=O)NC(=O)[C@@H](NC(=O)CCOCCOCCOCCC(=O)NCCNc2ncc(-c3cc(C)cc(F)c3)c(N3CCC(N)CC3)c2-c2nc3ccc(Cl)cc3[nH]2)C(C)C)c(O[C@@H]2O[C@H](C(=O)O)[C@@H](O)[C@H](O)[C@H]2O)c1)C(C)C [Compound 138]	5.2 nM	0.16 nM	12 nM
CC[C@H](C)[C@@H]([C@@H](CC(=O)N1CCC[C@H]1[C@H](OC)[C@@H](C)C(=O)N[C@H](C)[C@@H](O)c1ccccc1)OC)N(C)C(=O)[C@@H](NC(=O)[C@H](C(C)C)N(C)C(=O)OCc1ccc(NC(=O)[C@H](C)NC(=O)[C@@H](NC(=O)CCCC(=O)N(C)CC(=O)NCCNc2ncc(-c3cc(C)cc(F)c3)c(N3CCC(N)CC3)c2-c2nc3ccc(Cl)cc3[nH]2)C(C)C)c(O[C@@H]2O[C@H](C(=O)O)[C@@H](O)[C@H](O)[C@H]2O)c1)C(C)C [Compound 140]	1.8 nM	0.33 nM	5.4 nM
CC[C@H](C)[C@@H]([C@@H](CC(=O)N1CCC[C@H]1[C@H](OC)[C@@H](C)C(=O)N[C@H](C)[C@@H](O)c1ccccc1)OC)N(C)C(=O)[C@@H](NC(=O)[C@H](C(C)C)N(C)C(=O)OCc1ccc(NC(=O)[C@H](CCCNC(N)=O)NC(=O)[C@@H](NC(=O)CCCC(=O)N(C)CC(=O)NCCNc2ncc(-c3cc(C)cc(F)c3)c(N3CCC(N)CC3)c2-c2nc3ccc(Cl)cc3[nH]2)C(C)C)c(O[C@@H]2O[C@H](C(=O)O)[C@@H](O)[C@H](O)[C@H]2O)c1)C(C)C [Compound 141]	2.3 nM	0.22 nM	11 nM
CC[C@H](C)[C@@H]([C@@H](CC(=O)N1CCC[C@H]1[C@H](OC)[C@@H](C)C(=O)N[C@H](C)[C@@H](O)c1ccccc1)OC)N(C)C(=O)[C@@H](NC(=O)[C@H](C(C)C)N(C)C(=O)OCc1ccc(NC(=O)[C@H](CCCNC(N)=O)NC(=O)[C@@H](NC(=O)CCCC(=O)N(C)CC(=O)N(C)CC(=O)N(C)CC(=O)NCCNc2ncc(-c3cc(C)cc(F)c3)c(N3CCC(N)CC3)c2-c2nc3ccc(Cl)cc3[nH]2)C(C)C)c(O[C@@H]2O[C@H](C(=O)O)[C@@H](O)[C@H](O)[C@H]2O)c1)C(C)C [Compound 142]	4.4 nM	0.25 nM	91 nM
CC[C@H](C)[C@@H]([C@@H](CC(=O)N1CCC[C@H]1[C@H](OC)[C@@H](C)C(=O)N[C@H](C)[C@@H](O)c1ccccc1)OC)N(C)C(=O)[C@@H](NC(=O)[C@H](C(C)C)N(C)C(=O)OCc1ccc(NC(=O)[C@H](CCCNC(N)=O)NC(=O)[C@@H](NC(=O)[C@H](CCC(=O)O)NC(=O)CCOCCC(=O)NCCNc2ncc(-c3cc(C)cc(F)c3)c(N3CCC(N)CC3)c2-c2nc3ccc(Cl)cc3[nH]2)C(C)C)c(O[C@@H]2O[C@H](C(=O)O)[C@@H](O)[C@H](O)[C@H]2O)c1)C(C)C [Compound 143]	3 nM	0.14 nM	100 nM
CC[C@H](C)[C@@H]([C@@H](CC(=O)N1CCC[C@H]1[C@H](OC)[C@@H](C)C(=O)N[C@H](C)[C@@H](O)c1ccccc1)OC)N(C)C(=O)[C@@H](NC(=O)[C@H](C(C)C)N(C)C(=O)OCc1ccc(NC(=O)[C@H](CCCNC(N)=O)NC(=O)[C@@H](NC(=O)[C@H](CCC(=O)O)NC(=O)CCOCCOCCOCCOCCC(=O)NCCNc2ncc(-c3cc(C)cc(F)c3)c(N3CCC(N)CC3)c2-c2nc3ccc(Cl)cc3[nH]2)C(C)C)c(O[C@@H]2O[C@H](C(=O)O)[C@@H](O)[C@H](O)[C@H]2O)c1)C(C)C [Compound 144]	6.9 nM	0.21 nM	120 nM
CC[C@H](C)[C@@H]([C@@H](CC(=O)N1CCC[C@H]1[C@H](OC)[C@@H](C)C(=O)N[C@H](C)[C@@H](O)c1ccccc1)OC)N(C)C(=O)[C@@H](NC(=O)[C@H](C(C)C)N(C)C(=O)OCc1ccc(NC(=O)[C@H](C)NC(=O)[C@@H](NC(=O)[C@H](CCC(=O)O)NC(=O)CCOCCC(=O)NCCNc2ncc(-c3cc(C)cc(F)c3)c(N3CCC(N)CC3)c2-c2nc3ccc(Cl)cc3[nH]2)C(C)C)c(O[C@@H]2O[C@H](C(=O)O)[C@@H](O)[C@H](O)[C@H]2O)c1)C(C)C [Compound 145]	7.9 nM	0.25 nM	150 nM
CC[C@H](C)[C@@H]([C@@H](CC(=O)N1CCC[C@H]1[C@H](OC)[C@@H](C)C(=O)N[C@H](C)[C@@H](O)c1ccccc1)OC)N(C)C(=O)[C@@H](NC(=O)[C@H](C(C)C)N(C)C(=O)OCc1ccc(NC(=O)[C@H](C)NC(=O)[C@@H](NC(=O)[C@H](CCC(N)=O)NC(=O)CCOCCC(=O)NCCNc2ncc(-c3cc(C)cc(F)c3)c(N3CCC(N)CC3)c2-c2nc3ccc(Cl)cc3[nH]2)C(C)C)c(O[C@@H]2O[C@H](C(=O)O)[C@@H](O)[C@H](O)[C@H]2O)c1)C(C)C [Compound 146]	2.1 nM	0.072 nM	4.8 nM
CC[C@H](C)[C@@H]([C@@H](CC(=O)N1CCC[C@H]1[C@H](OC)[C@@H](C)C(=O)N[C@H](C)[C@@H](O)c1ccccc1)OC)N(C)C(=O)[C@@H](NC(=O)[C@H](C(C)C)N(C)C(=O)OCc1ccc(O[C@@H]2O[C@H](C(=O)O)[C@@H](O)[C@H](O)[C@H]2O)c(NC(=O)[C@H](CCCNC(N)=O)NC(=O)[C@@H](NC(=O)CCOCCC(=O)NCCNc2ncc(-c3cc(C)cc(F)c3)c(N3CCC(N)CC3)c2-c2nc3ccc(Cl)cc3[nH]2)C(C)C)c1)C(C)C [Compound 147]	2.5 nM	0.14 nM	3.2 nM
CC[C@H](C)[C@@H]([C@@H](CC(=O)N1CCC[C@H]1[C@H](OC)[C@@H](C)C(=O)N[C@H](C)[C@@H](O)c1ccccc1)OC)N(C)C(=O)[C@@H](NC(=O)[C@H](C(C)C)N(C)C(=O)OCc1ccc(O[C@@H]2O[C@H](C(=O)O)[C@@H](O)[C@H](O)[C@H]2O)c(NC(=O)[C@H](C)NC(=O)[C@@H](NC(=O)CCOCCC(=O)NCCNc2ncc(-c3cc(C)cc(F)c3)c(N3CCC(N)CC3)c2-c2nc3ccc(Cl)cc3[nH]2)C(C)C)c1)C(C)C [Compound 148]	4.5 nM	0.086 nM	7.9 nM
CC[C@H](C)[C@@H]([C@@H](CC(=O)N1CCC[C@H]1[C@H](OC)[C@@H](C)C(=O)N[C@H](C)[C@@H](O)c1ccccc1)OC)N(C)C(=O)[C@@H](NC(=O)[C@H](C(C)C)N(C)C(=O)OCc1ccc(NC(=O)[C@H](C)NC(=O)[C@@H](NC(=O)CCOCCOCCC(=O)NCCNc2ncc(-c3cc(C)cc(F)c3)c(N3CCC(N)CC3)c2-c2nc3ccc(Cl)cc3[nH]2)C(C)C)c(O[C@@H]2O[C@H](C(=O)O)[C@@H](O)[C@H](O)[C@H]2O)c1)C(C)C [Compound 149]	5.2 nM	0.099 nM	5 nM
CC[C@H](C)[C@@H]([C@@H](CC(=O)N1CCC[C@H]1[C@H](OC)[C@@H](C)C(=O)N[C@H](C)[C@@H](O)c1ccccc1)OC)N(C)C(=O)[C@@H](NC(=O)[C@H](C(C)C)N(C)C(=O)OCc1ccc(NC(=O)[C@H](C)NC(=O)[C@@H](NC(=O)CCOCCOCCOCCOCCC(=O)NCCNc2ncc(-c3cc(C)cc(F)c3)c(N3CCC(N)CC3)c2-c2nc3ccc(Cl)cc3[nH]2)C(C)C)c(O[C@@H]2O[C@H](C(=O)O)[C@@H](O)[C@H](O)[C@H]2O)c1)C(C)C [Compound 150]	5.6 nM	0.18 nM	9.3 nM
CC[C@H](C)[C@@H]([C@@H](CC(=O)N1CCC[C@H]1[C@H](OC)[C@@H](C)C(=O)N[C@H](C)[C@@H](O)c1ccccc1)OC)N(C)C(=O)[C@@H](NC(=O)[C@H](C(C)C)N(C)C(=O)OCc1ccc(NC(=O)[C@H](CCCNC(N)=O)NC(=O)[C@@H](NC(=O)[C@H](CCC(N)=O)NC(=O)CCOCCC(=O)NCCNc2ncc(-c3cc(C)cc(F)c3)c(N3CCC(N)CC3)c2-c2nc3ccc(Cl)cc3[nH]2)C(C)C)c(O[C@@H]2O[C@H](C(=O)O)[C@@H](O)[C@H](O)[C@H]2O)c1)C(C)C [Compound 151]	2.2 nM	0.28 nM	8.9 nM
CC[C@H](C)[C@@H]([C@@H](CC(=O)N1CCC[C@H]1[C@H](OC)[C@@H](C)C(=O)N[C@H](C)[C@@H](O)c1ccccc1)OC)N(C)C(=O)[C@@H](NC(=O)[C@H](C(C)C)N(C)C(=O)OCc1ccc(NC(=O)[C@H](C)NC(=O)[C@@H](NC(=O)[C@H](CCC(=O)O)NC(=O)CCOCCOCCOCCOCCC(=O)NCCNc2ncc(-c3cc(C)cc(F)c3)c(N3CCC(N)CC3)c2-c2nc3ccc(Cl)cc3[nH]2)C(C)C)c(O[C@@H]2O[C@H](C(=O)O)[C@@H](O)[C@H](O)[C@H]2O)c1)C(C)C [Compound 152]	5.8 nM	0.2 nM	91 nM
CC[C@H](C)[C@@H]([C@@H](CC(=O)N1CCC[C@H]1[C@H](OC)[C@@H](C)C(=O)N[C@H](C)[C@@H](O)c1ccccc1)OC)N(C)C(=O)[C@@H](NC(=O)[C@H](C(C)C)N(C)C(=O)OCc1ccc(NC(=O)[C@H](C)NC(=O)[C@@H](NC(=O)CCOCCC(=O)N(C)CCNc2ncc(-c3cc(C)cc(F)c3)c(N3CCC(N)CC3)c2-c2nc3ccc(Cl)cc3[nH]2)C(C)C)c(O[C@@H]2O[C@H](C(=O)O)[C@@H](O)[C@H](O)[C@H]2O)c1)C(C)C [Compound 153]	14 nM	0.51 nM	98 nM
